Reference: a melting point compilation (Tetko et al.; mined from patent text by program, amines drawn as free bases though some values may be those of a salt)

Row | melting point [°C] | SMILES
1 | 77 | CCCCCCCCC#CCC#CCC#CCSCC(=O)NCCO
2 | 271 to 272 | COc1ccc(-c2nc(-c3ccc4oc(=O)[nH]c4c3)cs2)cc1OC
3 | 163 to 166 | CCOC(=O)c1cn(Cc2ccc(-c3ccccc3-c3nnn[nH]3)cc2)c2sc(CC)c(NC(C)=O)c2c1=O
4 | 188 to 190 | COc1ccc(S(=O)(=O)Nc2cccc(Cl)c2/C=C/c2ccncc2)cc1
5 | 85 to 90 | Cc1cccc(C2COc3cc(O)ccc3C2c2ccc(OCCN3CCCC3)cc2)c1 (centres undefined)
6 | 46 to 48 | CC(=O)c1ccc2c(c1)N(C)CCC2(C)C
7 | 95 to 97 | CCNC(=O)c1c(Cl)cc(C=O)cc1[Si](C)(C)C
8 | 155 to 160 | CCCCc1nc(Cl)c(/C=C(\Cc2ccccc2)C(=O)O)n1Cc1ccc(-c2c(O)c(=O)c2=O)cc1
9 | 155 to 156 | O=C1c2cc(OCc3ccccn3)ccc2OCC1Oc1cccnc1 (centres undefined)
10 | 189 | CCOC(=O)C(O)=CC=C(C#N)c1ccccc1
11 | 259 to 261 | O=P1(c2ccc(-c3ccccc3)cc2)c2ccccc2CN1c1ccccc1 (centres undefined)
12 | 150 to 152 | COc1ccc2[nH]c(C(=NO)c3ccccc3)cc2c1
13 | 169 | O=c1ncc(Br)cn1COCc1ccccc1
14 | 122 to 123 | CNC1=NS(=O)N=C1NCCCN(Cc1ccccc1)c1ccccn1 (centres undefined)
15 | 105 | COc1ccc(CN(C)CCCOc2ccc(S(=O)(=O)c3c(C(C)C)n(C)c4ccccc34)cc2)cc1OC
16 | 58 to 60 | COC(=O)C(C)c1ccc2cc(OC(=O)COCc3ccccc3)ccc2c1 (centres undefined)
17 | 121 to 123 | NC[C@H]1CCc2[nH]c3ccc(F)cc3c2C1
18 | 182 to 184 | CCCc1nn(Cc2ccccc2)c(C(N)=O)c1NC(=O)c1cc(S(=O)(=O)N2CCN(C)CC2)ccc1OCC
19 | 142 to 144 | CCOC(=O)c1nnc(S)n1Cc1ccc(OC)cc1
20 | 82 to 84 | O=C(Cc1ccc(Cl)cc1)C1(c2ccc(Cl)c(Cl)c2)CCC1
21 | 110 to 112 | O=C(c1ccc(F)cc1Cl)N1Cc2cccn2Cc2ccccc21
22 | > 300 | COc1ccc(-c2[nH]nc3c2C(=O)c2c(NC(=O)NNC(=O)c4cc(N)cc(N)c4)cccc2-3)cc1
23 | 85 to 87 | C=C1CC(C)(c2ccc(Nc3c4ccccc4nc4occc34)cc2)OC1=O (centres undefined)

Row | melting point [°C] | SMILES
24 | 130 to 135 | COc1cc(Nc2c(C#N)cnc3cc(-c4ccc(CNCCc5ccccn5)o4)ccc23)c(Cl)cc1Cl
25 | 235 to 237 | C=CCC1(CC=C)c2cc(-c3ncncn3)ccc2-c2ccc(N(c3ccccc3)c3ccccc3)cc21
26 | 130 to 139 | CCCn1nc2c(N)nc3ccccc3c2c1CC(C)(C)NS(C)(=O)=O
27 | 58 to 63 | CCCn1nc(C(C)C)c(C(=O)OCOC(C)=O)c1Cc1ccc(-c2ccccc2-c2nnn[nH]2)cc1
28 | 226 to 229 | Cc1[nH]cnc1CC1CCc2c(C)c3ccccc3n2C1=O (centres undefined)
29 | 191 to 193 | COc1ccc([C@@H](CC(N)=O)N2Cc3ccccc3C2=O)cc1OC
30 | 108 | COC(=O)C1OC(OC(=N)C(Cl)(Cl)Cl)C(OC(C)=O)C(OC(C)=O)C1OC(C)=O (centres undefined)
31 | 208 to 212 | CC(C)(C)OC(=O)NC(Cc1ccccc1)C(O)C(O)C(Cc1ccccc1)NC(=O)OC(C)(C)C (centres undefined)
32 | 188 to 191 | Cc1cccc(Nc2cc(Cl)nc(SCC(N)=O)n2)c1C
33 | 77 to 78 | COC(=O)COc1cccc2c(CCS(=O)CCc3ccccc3)c(C)oc12 (centres undefined)
34 | 77 to 79 | COC1=C(OC)C(=O)C(CCCCCCCCCCCCCCCCCC(=O)O)=C(C)C1=O
35 | 251 to 252 | CC(C)(C)c1ccc(-n2cc(C(=O)O)c(=O)c3ccc(-c4ccncc4)cc32)cc1
36 | 193 to 195 | CCOC(=O)c1cn(C2CC2)c2c(F)c(NCCO)c(F)c(F)c2c1=O
37 | 90 to 92 | CCCCN(C(=O)c1ccccc1)C(=NC(=O)c1ccccc1)Nc1ccc(C(N)=O)cc1
38 | 222 to 224 | Cn1c(=O)c2c(c3ccccc31)c1cc(Cl)ccc1n2CCN
39 | 66 to 68 | Cc1cc(Br)c(Cl)c(Cl)c1N
40 | 180 to 181 | Cc1c(C=O)c2c(c(C)c1NC(=O)CC(C)(C)C)CC(C)(C)O2
41 | > 245 | CN(C)c1ccc(-c2cccc3c2C2(COc4cc5c(cc42)OCO5)C(=O)N3)cn1 (centres undefined)
42 | 224 to 226 | CC1c2ccccc2COc2ccc(C(=O)O)cc21 (centres undefined)
43 | > 217 | O=C(O)CN1C(=O)C(=CC=Cc2ccccc2)SC1=S
44 | 165 to 166 | CC(C)(C)C(=O)Nc1c[nH]nc1C(=O)NCCC#N
45 | 211 to 217 | Nc1ncccc1-c1nc2cc(-c3ccc(C(=O)O)o3)cnc2n1-c1ccc(CNC(=O)c2ccccc2)cc1
46 | 143 to 144 | COC(=O)COc1ccc([C@H]2c3ccc(OCc4ccccc4)cc3OC[C@H]2c2ccccc2)cc1 (racemic)

Row | melting point [°C] | SMILES
47 | 113 to 116 | CC(=O)N1CCC(C(=O)c2nccn2CCc2ccccc2)CC1
48 | 158 to 160 | COC(=O)C1=C(C)NC(C)=C(C(=O)OCC2CCCO2)C1c1cccc(NC(C)=O)c1 (centres undefined)
49 | 105 to 106 | Cc1cccc(C)c1NCCNCC(O)COc1ccc(F)cc1 (centres undefined)
50 | 211 to 213 | CC1(c2ccc(Cl)cc2)Cc2cc(O)c(Cl)c(Cl)c2C1=O (centres undefined)
51 | 123 to 125 | Oc1ccc(C2CCOCC2)cc1Cl
52 | 152 to 155 | CCN1CCC(CC(=O)NOC(C)(C)C)(S(=O)(=O)c2ccc(Oc3ccccc3)cc2)CC1
53 | 97 to 99 | CCc1cc(CC)c(NC(=S)NC2CCCCC2)c(CC)c1
54 | 112 to 114 | CS(=O)(=O)c1ccc(-c2cc(C(=O)CCCO)nn2C2CCCCC2)cc1
55 | 130 to 135 | Cc1cccnc1-c1ccccc1Nc1nc(Nc2ccc3c(c2)C(C)(C)CCC(=O)N3)ncc1Cl
56 | 202 to 203 | Nc1c(Br)cc(-n2cnnc2)cc1C(F)(F)F
57 | 174 | O=C(Nc1ccccc1Nc1ccccc1)N[C@@H](Cc1ccc(NC(=O)c2c(Cl)cccc2Cl)cc1)C(=O)O
58 | 159 to 160 | Nc1cnc(-c2cc(Cl)ccc2Cl)c(N)n1
59 | 199 | CNC(=S)C1(c2cccnn2)CCCS1 (centres undefined)
60 | 296 to 298 | COC(=O)CCc1ccc(-n2ncn(-c3ccc(C(=N)NC(=O)OC)cc3)c2=O)cc1
61 | 153 to 154 | Cn1cnc(S(=O)(=O)NCCCCCCNS(=O)(=O)c2cn(C)cn2)c1
62 | 173 to 175 | Cc1sc2c(Br)c3ccccc3c(-c3ccc(O)c(N)c3)c2c1C
63 | 183 to 185 | O=C1c2cc3nnn(Cc4cccc(F)c4)c(=O)c3cc2OC2CCCN12 (centres undefined)
64 | 116 to 118 | CC(C)[C@H](NC(=O)OCc1ccccn1)C(=O)O
65 | 116 | NCc1cccc(CNC(=O)C2Cc3ccccc3N2S(=O)(=O)c2ccc(-c3cccc(C(F)(F)F)c3)cc2)c1 (centres undefined)
66 | 144 to 145 | O=C1C2CCCC2=Nc2ccccc2N1Cc1ccc(Cl)cc1Cl (centres undefined)
67 | 186 to 188 | CC(C)C1(C)N=C(c2ccccc2C(=O)O)N(O)C1=O (centres undefined)

Row | SMILES | melting point [°C]
68 | COc1ccc2c(c1)C(c1ccc(N)cc1)=NN(C(C)=O)C(C)C2 (centres undefined) | 237 to 238
69 | Cc1ccc(Cn2nc(C(=O)NC3CCCCC3C)cc2-c2ccc(Cl)c(Cl)c2)cc1Cl (centres undefined) | 165
